Each structure is given as a SMILES string.

In general, boiling point refers to the temperature at which the vapour pressure of the liquid equals the pressure above it. `OCCCCCC(F)(F)F`: the boiling point came to 166 °C.

In general, melting point refers to the temperature, or range, at which the solid turns liquid. Compound `CCCCCCCCCCCCCCCC(=O)OC` came in with a log10 vapour pressure (mmHg) of -4.33 and a melting point of 30 °C.

Take `CCCCCCCCCCCCCCCCC1CCCCC1`: the boiling point was found to be 385 °C and the melting point stood at 33.6 °C.

Turning to `Cc1cc(O)ccc1N=Nc1ccccc1`, the melting point was found to be 109 °C.

For `O=C(O)c1c2ccccc2cc2ccccc12`, the log10 Koc (L/kg) turned out to be 2.74.

Compound `COc1ccc(O)c([N+](=O)[O-])c1` had a log10 Henry constant (atm·m³/mol) of -5.73 and a melting point of 79 °C.

On to `O=C(c1ccccc1)c1ccc(Cl)c([N+](=O)[O-])c1`, for which the melting point came to 105 °C.

In general, logP refers to a log measure of how a compound divides between an organic and an aqueous phase. `Brc1ccc(Oc2ccc(Br)c(Br)c2Br)c(Br)c1` registered a log10 Koa of 11.7, a log10 vapour pressure (mmHg) of -8.14 and a logP of 7.37.

As to `CCC(=O)OC1CCCCC1`, the boiling point turned out to be 193 °C.

On to `Clc1ccc(Cl)c(Cl)c1Cl`, for which the boiling point was 254 °C, the log10 Henry constant (atm·m³/mol) is -3.12, the log10 Koa came to 5.64 and the log10 Koc (L/kg) amounted to 3.84. Also, the log10 vapour pressure (mmHg) is -1.41, the melting point came out at 47.5 °C and the ready biodegradability entry is “not readily biodegradable”.

In turn, `O=c1c(O)c(-c2ccc(O)cc2O)oc2cc(O)cc(O)c12` showed a melting point of 304 °C.

Take `CC(C)CCCN`: the boiling point is 125 °C and the melting point was -94.4 °C.

`O=C(NNc1ccccc1)c1ccccc1` had a boiling point of 314 °C and a melting point of 168 °C.

`O=C(O)CCc1ccccc1` showed a boiling point of 280 °C, a log10 vapour pressure (mmHg) of -2.57 and a melting point of 107 °C.

Consider `Brc1ccc(Oc2ccccc2)cc1`, for which the boiling point is 310 °C, the log10 Koc (L/kg) turned out to be 4.23, the log10 vapour pressure (mmHg) is -2.82 and the melting point is 18.7 °C.

Compound `Cc1ccc(NC(O)=NC(C)(C)c2ccccc2)cc1` displayed a log10 vapour pressure (mmHg) of -8.47 and a melting point of 203 °C.

The compound `CCCCCCCCCCCCCCCCCCCCCCCCCCCCCC` had a boiling point of 450 °C, a log10 biodegradation half-life (days) of 2.24, a log10 vapour pressure (mmHg) of -10.6 and a melting point of 65.8 °C. The ready biodegradability result is given as “readily biodegradable”.

Take `COCCC(C)C`: the boiling point came out at 91 °C.

Consider `CC(C)C(O)(c1ccc(OC(F)(F)F)cc1)c1cncnc1` (stereo unspecified), for which the boiling point worked out at 264 °C, the log10 vapour pressure (mmHg) was -6.44 and the melting point was 95 °C.

As for `CC(C)c1ccc(OP(=O)(Oc2ccc(C(C)C)cc2)Oc2ccc(C(C)C)cc2)cc1`, the ready biodegradability entry is reported as “not readily biodegradable”.

In the case of `CS(C)=O`, the boiling point amounted to 189 °C, the log10 Henry constant (atm·m³/mol) was -8.82, the log10 Koa was found to be 4.96 and the log10 vapour pressure (mmHg) is -0.215. In addition, the melting point is 18.5 °C and the ready biodegradability result was “not readily biodegradable”.

`CNC(=C[N+](=O)[O-])NCCSCc1csc(CN(C)C)n1` yielded a melting point of 131 °C.

The compound `CCN(CC)CCNC(=O)c1cc(Cl)c(N)cc1OC` yielded a melting point of 147 °C.

As for `CCCC(C=O)CCC`, the boiling point is 160 °C.

For the compound `Clc1c(Br)c(Br)c2c(c1Br)Oc1c(Br)c(Br)c(Cl)c(Br)c1O2`, the log10 vapour pressure (mmHg) was -12.5 and the melting point is 385 °C.

`CC[C@H]1CC[C@H](C)NC1` showed a log10 vapour pressure (mmHg) of 0.458.

Turning to `Nc1ccc([N+](=O)[O-])cn1`, the melting point stood at 187 °C.

The compound `CCOC(=O)C(Cl)Cc1cc(-n2nc(C)n(C(F)F)c2=O)c(F)cc1Cl` (stereo unspecified) registered a boiling point of 352 °C, a log10 vapour pressure (mmHg) of -6.92 and a melting point of -22.1 °C.

In turn, `O=C(Cl)c1ccc(Br)cc1` displayed a boiling point of 246 °C and a melting point of 42 °C.

`CCCCc1cccc2[nH]nnc12` showed a log10 Koc (L/kg) of 2.16.

For the compound `Nc1ccc(Br)cc1[N+](=O)[O-]`, the melting point came out at 112 °C.

In the case of `CCC(C)CCC(C)O` (stereo unspecified), the boiling point is 170 °C and the melting point was -61 °C.

For `Cc1nnc(-c2ccccc2)c(=O)n1N`, the log10 Koc (L/kg) worked out at 2.17 and the log10 vapour pressure (mmHg) is -8.19.

Take `BrC1c2ccccc2-c2ccccc21`: the melting point was 104 °C.

Compound `C[C@H](N)Cc1ccccc1` yielded a boiling point of 203 °C.

The compound `CN(CC(=O)O)C(=O)COC(=O)c1ccccc1` returned a melting point of 106 °C.

As for `CCC1COC(Cn2cncn2)(c2ccc(Cl)cc2Cl)O1` (stereo unspecified), the melting point is 84 °C.

Take `CC(=O)C(N=Nc1ccc(-c2ccc(N=NC(C(C)=O)C(=O)Nc3ccccc3)c(Cl)c2)cc1Cl)C(=O)Nc1ccccc1` (stereo unspecified): the ready biodegradability entry is listed as “not readily biodegradable”.

`C[S@](=O)c1ccccc1`: the boiling point is 264 °C and the melting point stood at 32 °C.

In turn, `CC1=C(C)S(=O)(=O)CCS1(=O)=O` displayed a log10 Koc (L/kg) of 0.48, a log10 vapour pressure (mmHg) of -6.42 and a melting point of 165 °C.

For the compound `CCOC(CCCN)OCC`, the boiling point worked out at 196 °C.

Compound `CCOC(=O)CSCCC1NC(C(=O)O)CS1` (stereo unspecified) came in with a melting point of 142 °C.

On to `Cc1ccc(O)c(C(C)(C)C)c1`, for which the boiling point amounted to 237 °C, the log10 vapour pressure (mmHg) is -1.6, the melting point was 51.5 °C and the ready biodegradability entry is on record as “not readily biodegradable”.

As for `COCCOc1ccccc1S(=O)(=O)N=C(O)N=c1nc(OC)[nH]c(OC)n1`, the melting point was determined as 130 °C.

For `CCCCCCCCC(=O)OCCCCC`, the melting point was -27 °C.

Take `O/N=C\c1cc[n+](COC[n+]2ccc(/C=N\O)cc2)cc1.[Cl-].[Cl-]`: the melting point amounted to 220 °C.

`CC1(C)OCCO1` displayed a boiling point of 92.5 °C.

Take `Cc1cc(C)c(N)c(Cl)c1`: the ready biodegradability result is “not readily biodegradable”.

The compound `COc1ccc(C=CC(=O)c2ccc(OC)cc2OC)cc1` displayed a melting point of 97 °C.
